{
  "source": "patent US20100317620A1",
  "about": "“N-PHENYLIMIDAZO[1,2-a]PYRIDINE-2-CARBOXAMIDE COMPOUNDS, PREPARATION AND THERAPEUTIC USE THEREOF” (sanofi-aventis, priority 2008, published 2010)",
  "note": "Structures can show the parent of a compound that is named as a salt.",
  "data": [
    {"target": "T1, murine Nurr1 receptor (Mus musculus, UniProt Q06219)", "T1 construct": "a cell line (N2A) endogenously expressing the murine Nurr1 receptor; host or cells: Neuro-2A (N2A) mouse neuroblastoma cells stably transfected with 8NBRE-luciferase", "T1 sequence (Q06219 whole entry)": "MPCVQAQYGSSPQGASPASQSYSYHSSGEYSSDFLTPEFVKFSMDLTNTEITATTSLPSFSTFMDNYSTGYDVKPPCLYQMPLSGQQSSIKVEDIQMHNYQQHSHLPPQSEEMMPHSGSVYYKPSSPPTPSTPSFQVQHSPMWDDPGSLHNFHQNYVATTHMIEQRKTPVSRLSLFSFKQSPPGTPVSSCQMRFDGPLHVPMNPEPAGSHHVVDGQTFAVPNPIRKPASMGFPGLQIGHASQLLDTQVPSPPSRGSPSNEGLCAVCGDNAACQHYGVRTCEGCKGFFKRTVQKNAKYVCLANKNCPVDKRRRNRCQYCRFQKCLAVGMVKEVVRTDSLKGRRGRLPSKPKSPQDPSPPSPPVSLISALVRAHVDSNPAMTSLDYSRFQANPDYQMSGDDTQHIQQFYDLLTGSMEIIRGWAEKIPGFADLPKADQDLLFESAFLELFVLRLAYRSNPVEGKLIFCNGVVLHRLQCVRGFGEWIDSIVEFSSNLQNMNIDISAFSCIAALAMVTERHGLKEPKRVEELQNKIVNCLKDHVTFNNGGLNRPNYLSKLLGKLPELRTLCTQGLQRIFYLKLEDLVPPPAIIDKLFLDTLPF", "experiment": "In vitro activity on N2A cells (8NBRE-luciferase reporter)", "type": "cell-based", "conditions": "N2A cell line endogenously expressing murine Nurr1, stably transfected with NBRE-luciferase; 24 hours incubation", "method": "Evaluation of the In Vitro Activity on N2A Cells\nThe activity of the compounds according to the invention was evaluated on a cell line (N2A) endogenously expressing the murine Nurr1 receptor and stably transfected with the NOT binding response element (NBRE) coupled to the luciferase reporter gene. The EC50 values are between 0.01 and 1000 nM. The tests were performed according to the procedure described hereinbelow.\nThe cell line Neuro-2A is obtained from a standard commercial source (ATCC). The clone Neuro-2A was obtained from a spontaneous tumour originating from a strain of albino mice A by R. J Klebe et al. This line Neuro-2A is then stably transfected with 8NBRE-luciferase. The N2A-8NBRE cells are cultured to the point of confluence in 75 cm^2 culture flasks containing DMEM supplemented with 10% foetal calf serum, 4.5 g/L of glucose and 0.4 mg/ml of geneticin. After culturing for one week, the cells are recovered with 0.25% trypsin for 30 seconds and then resuspended in DMEM without phenol red, containing 4.5 g/L of glucose and 10% Hyclone defatted serum, and placed in white, transparent-based 96-well plates. The cells are deposited at a rate of 60 000 per well in 75 μL for 24 hours before adding the products. The products are applied in 25 μL and incubated for a further 24 hours. On the day of measurement, an equivalent volume (100 μL) of Steadylite is added to each well, and the wells are then left for 30 minutes to obtain complete lysis of the cells and maximum production of the signal. The plates are then measured in a microplate luminescence counter, after having been sealed with an adhesive film. The products are prepared in the form of a 10^−2 M stock solution, and then diluted in 100% of DMSO. Each concentration of product is prediluted in culture medium before incubation with the cells thus containing 0.625% final of DMSO.", "units": {"EC50": "nM"}, "values": [
      {"compound": "6-(Isopropylamino)-N-phenylimidazo[1,2-a]pyridine-2-carboxamide and its hydrochloride (1:1) [Example 2]", "EC50": 1.6},
      {"compound": "CSc1ccc2nc(C(=O)Nc3ccccc3)cn2c1", "note": "[Example 14, 6-(Methylthio)-N-phenylimidazo[1,2-a]pyridine-2-carboxamide and its hydrobromide (1:1)]", "EC50": 2},
      {"compound": "CS(=O)(=O)c1ccc2nc(C(=O)Nc3ccccc3)cn2c1", "note": "[Example 16, 6-(Methylsulfonyl)-N-phenylimidazo[1,2-a]pyridine-2-carboxamide and its hydrobromide (1:1)]", "EC50": 16}
    ]}
  ]
}
